One assay addresses T1, Aurora B (Homo sapiens, UniProt Q96GD4).
T1 construct: cell lysates from Jurkat cells (ATCC TIB-152) used; endogenous in cells; host or cells: Jurkat cells (ATCC TIB-152), treated with pervanadate
Nature of the assay: Kinobeads assay, Aurora B. The following applies: for IC50: lysate of pervanadate-treated Jurkat cells, read-out: Inhibition values (IC50) Aur B. The class given is binding.

For another assay, the target named is T2, Aurora A (Homo sapiens, UniProt O14965).
T2 construct: cell lysates from Jurkat cells (ATCC TIB-152) used; endogenous in cells; host or cells: Jurkat cells (ATCC TIB-152), treated with pervanadate
T2 sequence (O14965 1-403): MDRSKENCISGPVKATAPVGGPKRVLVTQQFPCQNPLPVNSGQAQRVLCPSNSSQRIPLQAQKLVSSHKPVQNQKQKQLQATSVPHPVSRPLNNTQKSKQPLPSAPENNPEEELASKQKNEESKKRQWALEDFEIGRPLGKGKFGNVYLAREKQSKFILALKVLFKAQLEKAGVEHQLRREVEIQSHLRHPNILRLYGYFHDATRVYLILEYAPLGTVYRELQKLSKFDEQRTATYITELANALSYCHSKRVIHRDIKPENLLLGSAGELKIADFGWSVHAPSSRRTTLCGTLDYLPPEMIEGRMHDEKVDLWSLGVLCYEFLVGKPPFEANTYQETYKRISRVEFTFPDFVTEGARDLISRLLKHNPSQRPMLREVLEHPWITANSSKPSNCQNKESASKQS
Nature of the assay: Kinobeads assay, Aurora A. The assay is classed as binding. The conditions noted are these: for IC50: lysate of pervanadate-treated Jurkat cells, read-out: Inhibition values (IC50) Aur A.

Molecules are shown by their SMILES.

Experimental findings from patent US9040545B2, “Heterocyclyl pyrazolopyrimidine analogues as selective JAK inhibitors” (Cellzome Limited, priority 2010, dated 2015) are described below.

As usually defined, the IC50 is the point on the concentration scale where inhibition reaches its midpoint.

T1 sequence (Q96GD4 whole entry): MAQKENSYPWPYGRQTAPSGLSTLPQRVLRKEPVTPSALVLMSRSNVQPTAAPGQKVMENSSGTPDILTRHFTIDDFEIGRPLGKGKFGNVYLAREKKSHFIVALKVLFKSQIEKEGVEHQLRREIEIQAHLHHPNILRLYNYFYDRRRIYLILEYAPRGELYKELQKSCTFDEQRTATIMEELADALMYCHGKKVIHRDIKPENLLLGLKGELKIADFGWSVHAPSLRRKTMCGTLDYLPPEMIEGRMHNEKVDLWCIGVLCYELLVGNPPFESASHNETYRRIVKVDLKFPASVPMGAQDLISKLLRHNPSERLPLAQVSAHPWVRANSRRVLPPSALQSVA

For `O=C(CCn1cc(Nc2ncc3cnn(Cc4cccc(N5CCOCC5)c4)c3n2)cn1)N1CCCCC1` [Example 20, 3-(4-((1-(3-Morpholinobenzyl)-1H-pyrazolo[3,4-d]pyrimidin-6-yl)amino)-1H-pyrazol-1-yl)-1-(piperidin-1-yl)propan-1-one], on Aurora B, the “JAK3/AurB Fold Selectivity” value is reported as greater than 50 Fold and the IC50 is 1000 to 10000 nM. On Aurora A, the “JAK3/AurA Fold Selectivity” value is 10-50 Fold and the IC50 lay within 100 to 1000 nM.

As to `O=C(c1cc(F)c(F)c(Cn2ncc3cnc(Nc4cnn(CCO)c4)nc32)c1F)N1CCOCC1` [Example 111, morpholino(2,4,5-trifluoro-3-((6-((1-(2-hydroxyethyl)-1H-pyrazol-4-yl)amino)-1H-pyrazolo[3,4-d]pyrimidin-1-yl)methyl)phenyl)methanone], at Aurora B, the “JAK3/AurB Fold Selectivity” value is 10-50 Fold and the IC50 lay in the range of 100 to 1000 nM. Besides, on Aurora A, the “JAK3/AurA Fold Selectivity” value is listed as 10-50 Fold and the IC50 fell in the range of 100 to 1000 nM.

Turning to `Cn1cc(Nc2ncc3cnn(Cc4cccc(C5CCOCC5)c4)c3n2)cn1` [Example 9, N-(1-Methyl-1H-pyrazol-4-yl)-1-(3-(tetrahydro-2H-pyran-4-yl)benzyl)-1H-pyrazolo[3,4-d]pyrimidin-6-amine], on Aurora B, the “JAK3/AurB Fold Selectivity” value is 10-50 Fold and the IC50 was 100 to 1000 nM. Moreover, at Aurora A, the “JAK3/AurA Fold Selectivity” value was 10-50 Fold and the IC50 was in the range of 100 to 1000 nM.

With `CNCC1(Cn2cc(Nc3ncc4cnn(Cc5cccc(N6CCOCC6)c5)c4n3)cn2)COC1` [Example 41, N-(1-((3-((Methylamino)methyl)oxetan-3-yl)methyl)-1H-pyrazol-4-yl)-1-(3-morpholinobenzyl)-1H-pyrazolo[3,4-d]pyrimidin-6-amine], at Aurora B, the “JAK3/AurB Fold Selectivity” value is on record as 10-50 Fold and the IC50 was 1000 to 10000 nM. In addition, at Aurora A, the “JAK3/AurA Fold Selectivity” value was 10-50 Fold and the IC50 is 1000 to 10000 nM.

In the case of `Cn1cc(Nc2ncc3cnn(Cc4cccc(N5CCC6(COC6)C5)c4)c3n2)cn1` [Example 104, 1-(3-(2-oxa-6-azaspiro[3.4]octan-6-yl)benzyl)-N-(1-methyl-1H-pyrazol-4-yl)-1H-pyrazolo[3,4-d]pyrimidin-6-amine], on Aurora B, the “JAK3/AurB Fold Selectivity” value is listed as 10-50 Fold and the IC50 lay within 1000 to 10000 nM. On Aurora A, the “JAK3/AurA Fold Selectivity” value is 10-50 Fold and the IC50 is 100 to 1000 nM.

`Cn1cc(Nc2ncc3cnn(Cc4cccc(N5CCN(S(C)(=O)=O)CC5)c4)c3n2)cn1` [Example 100, N-(1-methyl-1H-pyrazol-4-yl)-1-(3-(4-(methylsulfonyl)piperazin-1-yl)benzyl)-1H-pyrazolo[3,4-d]pyrimidin-6-amine]: at Aurora B, the “JAK3/AurB Fold Selectivity” value is recorded as 10-50 Fold and the IC50 was 1000 to 10000 nM. Further, on Aurora A, the “JAK3/AurA Fold Selectivity” value is recorded as 3-10 Fold and the IC50 was in the range of 100 to 1000 nM.

Turning to `Cn1cc(Nc2ncc3cnn(Cc4cccc(-c5cnn(CCO)c5)c4)c3n2)cn1` [Example 121, 2-(4-(3-((6-((1-methyl-1H-pyrazol-4-yl)amino)-1H-pyrazolo[3,4-d]pyrimidin-1-yl)methyl)phenyl)-1H-pyrazol-1-yl)ethanol], on Aurora B, the “JAK3/AurB Fold Selectivity” value is recorded as 10-50 Fold and the IC50 lay within 1000 to 10000 nM. Moreover, on Aurora A, the “JAK3/AurA Fold Selectivity” value was 10-50 Fold and the IC50 is 100 to 1000 nM.

Turning to `Cn1cc(Nc2ncc3cnn(Cc4cccc(N5CCNCC5)c4)c3n2)cn1` [Example 22, N-(1-Methyl-1H-pyrazol-4-yl)-1-(3-(piperazin-1-yl)benzyl)-1H-pyrazolo[3,4-d]pyrimidin-6-amine], on Aurora B, the “JAK3/AurB Fold Selectivity” value is on record as greater than 50 Fold and the IC50 lay in the range of 100 to 1000 nM. In addition, at Aurora A, the “JAK3/AurA Fold Selectivity” value was 10-50 Fold and the half-inhibitory concentration (IC50) was in the range of 100 to 1000 nM.

With `Cn1cc(Nc2ncc3cnn(Cc4cc(N5CCOCC5)cc(F)c4F)c3n2)cn1` [Example 37, 1-(2,3-Difluoro-5-morpholinobenzyl)-N-(1-methyl-1H-pyrazol-4-yl)-1H-pyrazolo[3,4-d]pyrimidin-6-amine], on Aurora B, the “JAK3/AurB Fold Selectivity” value is given as greater than 50 Fold and the IC50 lay in the range of 1000 to 10000 nM. At Aurora A, the “JAK3/AurA Fold Selectivity” value is recorded as 10-50 Fold and the IC50 lay in the range of 1000 to 10000 nM.

For `Cn1cc(Nc2ncc3cnn(Cc4cc(F)cc(N5CCNCC5)c4)c3n2)cn1` [Example 92, 1-(3-fluoro-5-(piperazin-1-yl)benzyl)-N-(1-methyl-1H-pyrazol-4-yl)-1H-pyrazolo[3,4-d]pyrimidin-6-amine], at Aurora B, the “JAK3/AurB Fold Selectivity” value was greater than 50 Fold and the IC50 was in the range of 100 to 1000 nM. Besides, at Aurora A, the “JAK3/AurA Fold Selectivity” value is recorded as 10-50 Fold and the IC50 lay within 100 to 1000 nM.

For the compound `Fc1cc(N2CCOCC2)c(F)c(Cn2ncc3cnc(Nc4cnn(CC5CCNC5)c4)nc32)c1F` (stereo not shown) [Example 94, N-(1-(pyrrolidin-3-ylmethyl)-1H-pyrazol-4-yl)-1-(2,3,6-trifluoro-5-morpholinobenzyl)-1H-pyrazolo[3,4-d]pyrimidin-6-amine], at Aurora B, the “JAK3/AurB Fold Selectivity” value is reported as greater than 50 Fold and the IC50 lay in the range of 1000 to 10000 nM. In addition, on Aurora A, the “JAK3/AurA Fold Selectivity” value is greater than 50 Fold and the IC50 was 1000 to 10000 nM.

Regarding `O=C(Cn1cc(Nc2ncc3cnn(Cc4cc(F)cc(N5CCOCC5=O)c4)c3n2)cn1)N1CCNCC1` [Example 109, 4-(3-fluoro-5-((6-((1-(2-oxo-2-(piperazin-1-yl)ethyl)-1H-pyrazol-4-yl)amino)-1H-pyrazolo[3,4-d]pyrimidin-1-yl)methyl)phenyl)morpholin-3-one], on Aurora B, the “JAK3/AurB Fold Selectivity” value is 10-50 Fold and the IC50 lay in the range of 100 to 1000 nM. Besides, on Aurora A, the “JAK3/AurA Fold Selectivity” value is 3-10 Fold and the IC50 was less than 100 nM.

Take `Cn1cc(Nc2ncc3cnn(Cc4cc(C(=O)N5CCOCC5)cc(F)c4F)c3n2)cn1` [Example 98, (3,4-difluoro-5-((6-((1-methyl-1H-pyrazol-4-yl)amino)-1H-pyrazolo[3,4-d]pyrimidin-1-yl)methyl)phenyl)(morpholino)methanone]: on Aurora B, the “JAK3/AurB Fold Selectivity” value is 3-10 Fold and the IC50 was less than 100 nM. At Aurora A, the “JAK3/AurA Fold Selectivity” value is reported as 3-10 Fold and the IC50 is less than 100 nM.

Turning to `Cn1cc(Nc2ncc3cnn(Cc4cc(N5CCOCC5)ccc4F)c3n2)cn1` [Example 15, 1-(2-Fluoro-5-morpholinobenzyl)-N-(1-methyl-1H-pyrazol-4-yl)-1H-pyrazolo[3,4-d]pyrimidin-6-amine], on Aurora B, the “JAK3/AurB Fold Selectivity” value is recorded as 10-50 Fold and the IC50 lay in the range of 1000 to 10000 nM. In addition, at Aurora A, the “JAK3/AurA Fold Selectivity” value is given as 10-50 Fold and the IC50 is 1000 to 10000 nM.

On to `Cn1cc(Nc2ncc3cnn(Cc4cccc(N5CCOCC5)c4)c3n2)cn1` [Example 2, N-(1-Methyl-1H-pyrazol-4-yl)-1-(3-morpholinobenzyl)-1H-pyrazolo[3,4-d]pyrimidin-6-amine], for which, on Aurora B, the “JAK3/AurB Fold Selectivity” value was greater than 50 Fold and the IC50 was in the range of 1000 to 10000 nM. In addition, on Aurora A, the “JAK3/AurA Fold Selectivity” value is given as 10-50 Fold and the IC50 fell in the range of 100 to 1000 nM.

With `O=C1CC(Cn2cc(Nc3ncc4cnn(Cc5cc(F)cc(N6CCOCC6=O)c5)c4n3)cn2)CN1` (stereo not shown) [Example 105, 4-(3-fluoro-5-((6-((1-((5-oxopyrrolidin-3-yl)methyl)-1H-pyrazol-4-yl)amino)-1H-pyrazolo[3,4-d]pyrimidin-1-yl)methyl)phenyl)morpholin-3-one], on Aurora B, the “JAK3/AurB Fold Selectivity” value was greater than 50 Fold and the IC50 was 100 to 1000 nM. Further, on Aurora A, the “JAK3/AurA Fold Selectivity” value is 10-50 Fold and the IC50 lay in the range of 100 to 1000 nM.
